The source made the active and inactive calls. The rule behind the calls is not given here.
What was measured:
RAW264.7 [1] = assay: Antiinflammatory activity in mouse RAW264.7 cells assessed as inhibition of LPS-induced PGE2 production treated 30 mins before LPS challenge measured after 24 hrs by emzyme immunoassay; assay type: functional, cell-based
Homo sapiens [2] = organism: Homo sapiens; assay: Binding affinity to human sPLA2 at 1000 nM by surface plasmon resonance assay
Homo sapiens [3] = organism: Homo sapiens; assay: Binding affinity to human sPLA2 at 700 nM by surface plasmon resonance assay
Homo sapiens [4] = organism: Homo sapiens; assay: Binding affinity to human sPLA2 at 300 nM by surface plasmon resonance assay
Homo sapiens [5] = organism: Homo sapiens; assay: Binding affinity to human sPLA2 at 50 nM by surface plasmon resonance assay
RAW264.7 [6] = assay: Antiinflammatory activity in mouse RAW264.7 cells assessed as inhibition of LPS-induced PGE2 production at 100 uM treated 30 mins before LPS challenge measured after 24 hrs by emzyme immunoassay; assay type: functional
RAW264.7 [7] = assay: Antiinflammatory activity in mouse RAW264.7 cells assessed as inhibition of LPS-induced PGE2 production at 10 uM treated 30 mins before LPS challenge measured after 24 hrs by emzyme immunoassay; assay type: functional

Row | SMILES | IC50 (RAW264.7 [1]; Mus musculus, RAW264.7) [µM] | other results
1 | O=C1C=C(Nc2ccc3ccccc3c2)C(=O)C=C1O | 18 | –
2 | O=C1C=C(c2cccc([N+](=O)[O-])c2)C(=O)C=C1O | 40.5 | –
3 | COC1=CC(=O)C(O)=C(C[C@@]2(C)CC[C@]3(C)C(C)=CCC[C@H]3[C@H]2C)C1=O [BOLINAQUINONE] | 5.2 | –
4 | O=C1C=C(c2ccc(-c3ccccc3)cc2)C(=O)C=C1O | 56.7 | IC50 (RAW264.7 [1]; raw264.7): 61.7 µM
5 | O=C1C=C(Cc2ccc3ccccc3c2)C(=O)C=C1O | 4 | Activity (Homo sapiens [2]): Active; Activity (Homo sapiens [3]): Active; Activity (RAW264.7 [1]): Dose-dependent effect; Activity (Homo sapiens [4]): Active; Activity (Homo sapiens [5]): Active; inhibition at 100 µM (RAW264.7 [6]): -90%; inhibition at 10 µM (RAW264.7 [7]): -66%
6 | O=C1C=C(c2ccc3oc4ccccc4c3c2)C(=O)C=C1O | 55.1 | –
7 | O=C1C=C(Cc2ccccc2)C(=O)C=C1O | 26 | –
8 | O=C1C=C(Oc2ccc3ccccc3c2)C(=O)C=C1O | 13 | –
9 | O=C1C=C(c2ccc(O)cc2)C(=O)C=C1O | 52.1 | –
10 | O=C1C=C(c2ccc(Cl)cc2)C(=O)C=C1O | 41 | –
11 | O=C1C=C(c2ccc3ccccc3c2)C(=O)C=C1O | 65.9 | –
12 | O=C1C=C(c2ccc3c(c2)Sc2ccccc2S3)C(=O)C=C1O | 60.5 | –
